Measured values published in patent publication US10131652B2, “Pyrimidinyloxy benzene derivatives as herbicides” (E. I. DU PONT DE NEMOURS AND COMPANY, priority 2014, dated 2018).

Columns and labels:
Format in all cases: in vivo
[1] = test system: chickweed (common chickweed, Stellaria media); test: Test D postemergence plant response; settings: for Chickweed plant response rating: scale 0 to 100 (0 no effect, 100 complete control); for Plant response rating, Chickweed: scale 0 to 100, 0 no effect, 100 complete control
How it was run: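 The formulated test chemicals were applied over the foliage of young potted plants (2 to 18 cm tall), which were then held under greenhouse conditions. Between days 13 and 15 each species was rated by eye versus controls, from 0 for no effect up to 100 for complete control.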

[2] = test system: galium (catchweed bedstraw, Galium aparine); test: Test B postemergence plant response; settings: 0 to 100 scale, 0 no effect, 100 complete control
How it was run: (§1)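 Values are visual control ratings (0 to 100) recorded approximately 10 days after postemergence application to greenhouse-grown plants of 2 to 10 cm, one- to two-leaf stage, each judged against untreated controls.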

[3] = test system: blackgrass (Alopecurus myosuroides); test: Test B postemergence plant response; settings: 0 to 100 scale, 0 no effect, 100 complete control
How it was run: as §1

[4] = test system: yellow nutsedge (Cyperus esculentus); test: Test D pre-/postemergence plant response
How it was run: (§2)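 Each compound, in non-phytotoxic solvent with surfactant, was sprayed onto soil right after sowing or onto young plants 2 to 18 cm tall. After 13 to 15 days under greenhouse conditions, effects were judged visually against controls on a 0 (no effect) to 100 (complete control) scale.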

[5] = test system: giant foxtail (Setaria faberii); test: Test D pre-/postemergence plant response
How it was run: as §2

[6] = test system: soybean (Glycine max); test: Test D pre-/postemergence plant response
How it was run: as §2

[7] = test system: morningglory (Ipomoea coccinea); test: Test D pre-/postemergence plant response
How it was run: as §2

[8] = test system: Italian ryegrass (Lolium multiflorum); test: Test D pre-/postemergence plant response
How it was run: as §2

[9] = test system: barnyardgrass (Echinochloa crus-galli); test: Test D pre-/postemergence plant response
How it was run: as §2

[10] = test system: oilseed rape (Brassica napus); test: Test D pre-/postemergence plant response
How it was run: as §2

[11] = test system: corn (Zea mays); test: Test D pre-/postemergence plant response
How it was run: as §2

[12] = test system: ragweed (common ragweed, Ambrosia elatior); test: Test D pre-/postemergence plant response
How it was run: as §2

[13] = test system: waterhemp (common waterhemp, Amaranthus rudis); test: Test D pre-/postemergence plant response
How it was run: as §2

[14] = test system: pigweed (Amaranthus retroflexus); test: Test D pre-/postemergence plant response
How it was run: as §2

[15] = Postemergence, 31 g ai/ha, scale 0 to 100 (0 no effect, 100 complete control)
[16] = Postemergence, 62 g ai/ha, scale 0 to 100, 0 no effect, 100 complete control
[17] = Postemergence, 125 g ai/ha, scale 0 to 100, 0 no effect, 100 complete control
[18] = Postemergence, 16 g ai/ha, scale 0 to 100 (0 no effect, 100 complete control)
[19] = Preemergence, 16 g ai/ha, scale 0 to 100 (0 no effect, 100 complete control)
[20] = Preemergence, 31 g ai/ha, scale 0 to 100 (0 no effect, 100 complete control)
[21] = Preemergence, 62 g ai/ha, scale 0 to 100 (0 no effect, 100 complete control)

## FC(F)c1cc(-c2c(Cl)cccc2Oc2ncc(Br)cn2)on1 [Compound 121]
[1]; 16 g ai/ha
  Chickweed plant response rating: 95
[1]; 31 g ai/ha
  Chickweed plant response rating: 100
[1]; 62 g ai/ha
  Plant response rating, Chickweed: 100
[1]; 125 g ai/ha
  Plant response rating, Chickweed: 100
[2]; 31 g ai/ha, Postemergence
  Plant response rating, Galium: 100
[2]; 125 g ai/ha, postemergence
  Plant response rating, Galium: 100
[3]; 31 g ai/ha, Postemergence
  Plant response rating, Blackgrass: 50
[3]; 125 g ai/ha, postemergence
  Plant response rating, Blackgrass: 80
[4]; [15]
  Nutsedge, Yellow plant response rating: 10
[4]; [16]
  Plant response rating, Nutsedge, Yellow: 5
[4]; [17]
  Plant response rating, Nutsedge, Yellow: 20
[5]; [18]
  Foxtail, Giant plant response rating: 10
[5]; [15]
  Foxtail, Giant plant response rating: 10
[5]; [16]
  Plant response rating, Foxtail, Giant: 15
[5]; [17]
  Plant response rating, Foxtail, Giant: 40
[6]; [15]
  Soybean plant response rating: 60
[6]; [16]
  Plant response rating, Soybean: 90
[6]; [17]
  Plant response rating, Soybean: 95
[7]; [15]
  Morningglory plant response rating: 75
[7]; [16]
  Plant response rating, Morningglory: 90
[7]; [17]
  Plant response rating, Morningglory: 98
[8]; [15]
  Ryegrass, Italian plant response rating: 10
[8]; [16]
  Plant response rating, Ryegrass, Italian: 40
[8]; [17]
  Plant response rating, Ryegrass, Italian: 55
[9]; [18]
  Barnyardgrass plant response rating: 20
[9]; [15]
  Barnyardgrass plant response rating: 25
[9]; [16]
  Plant response rating, Barnyardgrass: 25
[9]; [17]
  Plant response rating, Barnyardgrass: 45
[10]; [15]
  Oilseed Rape plant response rating: 80
[10]; [16]
  Plant response rating, Oilseed Rape: 95
[10]; [17]
  Plant response rating, Oilseed Rape: 95
[11]; [18]
  Corn plant response rating: 10
[11]; [15]
  Corn plant response rating: 20
[11]; [16]
  Plant response rating, Corn: 20
[11]; [17]
  Plant response rating, Corn: 25
[12]; [15]
  Ragweed plant response rating: 65
[12]; [16]
  Plant response rating, Ragweed: 75
[12]; [17]
  Plant response rating, Ragweed: 98
[13]; [15]
  Waterhemp plant response rating: 95
[13]; [16]
  Plant response rating, Waterhemp: 100
[13]; [17]
  Plant response rating, Waterhemp: 100
[14]; [15]
  Pigweed plant response rating: 98
[14]; [16]
  Plant response rating, Pigweed: 100
[14]; [17]
  Plant response rating, Pigweed: 100

## Fc1cccc(Oc2ncc(Cl)cn2)c1-c1cc(C2CC2)on1 [Compound 130]
[1]; 16 g ai/ha
  Chickweed plant response rating: 80
[1]; 31 g ai/ha
  Chickweed plant response rating: 80
[1]; 62 g ai/ha
  Plant response rating, Chickweed: 80
[1]; 125 g ai/ha
  Plant response rating, Chickweed: 95
[2]; 125 g ai/ha, postemergence
  Plant response rating, Galium: 90
[3]; 31 g ai/ha, Postemergence
  Plant response rating, Blackgrass: 50
[3]; 125 g ai/ha, postemergence
  Plant response rating, Blackgrass: 80
[4]; [15]
  Nutsedge, Yellow plant response rating: 5
[4]; [16]
  Plant response rating, Nutsedge, Yellow: 20
[4]; [17]
  Plant response rating, Nutsedge, Yellow: 25
[5]; [18]
  Foxtail, Giant plant response rating: 5
[5]; [15]
  Foxtail, Giant plant response rating: 5
[5]; [16]
  Plant response rating, Foxtail, Giant: 10
[5]; [17]
  Plant response rating, Foxtail, Giant: 25
[6]; [15]
  Soybean plant response rating: 55
[6]; [16]
  Plant response rating, Soybean: 98
[6]; [17]
  Plant response rating, Soybean: 95
[7]; [15]
  Morningglory plant response rating: 80
[7]; [16]
  Plant response rating, Morningglory: 85
[7]; [17]
  Plant response rating, Morningglory: 85
[8]; [15]
  Ryegrass, Italian plant response rating: 5
[8]; [16]
  Plant response rating, Ryegrass, Italian: 10
[8]; [17]
  Plant response rating, Ryegrass, Italian: 15
[9]; [18]
  Barnyardgrass plant response rating: 10
[9]; [15]
  Barnyardgrass plant response rating: 10
[9]; [16]
  Plant response rating, Barnyardgrass: 10
[9]; [17]
  Plant response rating, Barnyardgrass: 25
[10]; [15]
  Oilseed Rape plant response rating: 80
[10]; [16]
  Plant response rating, Oilseed Rape: 75
[10]; [17]
  Plant response rating, Oilseed Rape: 95
[11]; [18]
  Corn plant response rating: 10
[11]; [15]
  Corn plant response rating: 25
[11]; [16]
  Plant response rating, Corn: 10
[11]; [17]
  Plant response rating, Corn: 10
[12]; [15]
  Ragweed plant response rating: 60
[12]; [16]
  Plant response rating, Ragweed: 75
[12]; [17]
  Plant response rating, Ragweed: 40
[13]; [15]
  Waterhemp plant response rating: 85
[13]; [16]
  Plant response rating, Waterhemp: 98
[13]; [17]
  Plant response rating, Waterhemp: 98
[14]; [15]
  Pigweed plant response rating: 95
[14]; [16]
  Plant response rating, Pigweed: 98
[14]; [17]
  Plant response rating, Pigweed: 98

## FC(F)Oc1cccc(Oc2ncc(Cl)cn2)c1-c1cc(C(F)F)on1 [Compound 131]
[1]; 16 g ai/ha
  Chickweed plant response rating: 65
[1]; 31 g ai/ha
  Chickweed plant response rating: 80
[1]; 62 g ai/ha
  Plant response rating, Chickweed: 98
[1]; 125 g ai/ha
  Plant response rating, Chickweed: 100
[2]; 125 g ai/ha, postemergence
  Plant response rating, Galium: 90
[3]; 31 g ai/ha, Postemergence
  Plant response rating, Blackgrass: 50
[3]; 125 g ai/ha, postemergence
  Plant response rating, Blackgrass: 80
[4]; [15]
  Nutsedge, Yellow plant response rating: 0
[4]; [16]
  Plant response rating, Nutsedge, Yellow: 5
[4]; [17]
  Plant response rating, Nutsedge, Yellow: 10
[4]; Preemergence, 125 g ai/ha
  Plant response rating (scale 0 to 100), Nutsedge, Yellow: 70
[4]; [19]
  Plant response rating, Nutsedge, Yellow: 0
[4]; [20]
  Plant response rating, Nutsedge, Yellow: 5
[4]; [21]
  Plant response rating, Nutsedge, Yellow: 5
[5]; [18]
  Foxtail, Giant plant response rating: 10
[5]; [15]
  Foxtail, Giant plant response rating: 10
[5]; [16]
  Plant response rating, Foxtail, Giant: 15
[5]; [17]
  Plant response rating, Foxtail, Giant: 15
[5]; Preemergence, 125 g ai/ha
  Plant response rating (scale 0 to 100), Foxtail, Giant: 100
[5]; [19]
  Plant response rating, Foxtail, Giant: 80
[5]; [20]
  Plant response rating, Foxtail, Giant: 100
[5]; [21]
  Plant response rating, Foxtail, Giant: 100
[6]; [15]
  Soybean plant response rating: 15
[6]; [16]
  Plant response rating, Soybean: 75
[6]; [17]
  Plant response rating, Soybean: 65
[6]; Preemergence, 125 g ai/ha
  Plant response rating (scale 0 to 100), Soybean: 85
[6]; [19]
  Plant response rating, Soybean: 5
[6]; [20]
  Plant response rating, Soybean: 10
[6]; [21]
  Plant response rating, Soybean: 50
[7]; [15]
  Morningglory plant response rating: 75
[7]; [16]
  Plant response rating, Morningglory: 75
[7]; [17]
  Plant response rating, Morningglory: 95
[7]; Preemergence, 125 g ai/ha
  Plant response rating (scale 0 to 100), Morningglory: 85
[7]; [19]
  Plant response rating, Morningglory: 0
[7]; [20]
  Plant response rating, Morningglory: 40
[7]; [21]
  Plant response rating, Morningglory: 35
[8]; [15]
  Ryegrass, Italian plant response rating: 5
[8]; [16]
  Plant response rating, Ryegrass, Italian: 5
[8]; [17]
  Plant response rating, Ryegrass, Italian: 25
[8]; Preemergence, 125 g ai/ha
  Plant response rating (scale 0 to 100), Ryegrass, Italian: 90
[8]; [19]
  Plant response rating, Ryegrass, Italian: 0
[8]; [20]
  Plant response rating, Ryegrass, Italian: 20
[8]; [21]
  Plant response rating, Ryegrass, Italian: 35
[9]; [18]
  Barnyardgrass plant response rating: 10
[9]; [15]
  Barnyardgrass plant response rating: 10
[9]; [16]
  Plant response rating, Barnyardgrass: 10
[9]; [17]
  Plant response rating, Barnyardgrass: 20
[9]; Preemergence, 125 g ai/ha
  Plant response rating (scale 0 to 100), Barnyardgrass: 100
[9]; [19]
  Plant response rating, Barnyardgrass: 30
[9]; [20]
  Plant response rating, Barnyardgrass: 75
[9]; [21]
  Plant response rating, Barnyardgrass: 85
[10]; [15]
  Oilseed Rape plant response rating: 45
[10]; [16]
  Plant response rating, Oilseed Rape: 80
[10]; [17]
  Plant response rating, Oilseed Rape: 85
[10]; Preemergence, 125 g ai/ha
  Plant response rating (scale 0 to 100), Oilseed Rape: 95
[10]; [19]
  Plant response rating, Oilseed Rape: 10
[10]; [20]
  Plant response rating, Oilseed Rape: 50
[10]; [21]
  Plant response rating, Oilseed Rape: 85
[11]; [18]
  Corn plant response rating: 5
[11]; [15]
  Corn plant response rating: 5
[11]; [16]
  Plant response rating, Corn: 10
[11]; [17]
  Plant response rating, Corn: 25
[11]; Preemergence, 125 g ai/ha
  Plant response rating (scale 0 to 100), Corn: 65
[11]; [19]
  Plant response rating, Corn: 0
[11]; [20]
  Plant response rating, Corn: 10
[11]; [21]
  Plant response rating, Corn: 60
[12]; [15]
  Ragweed plant response rating: 45
[12]; [16]
  Plant response rating, Ragweed: 65
[12]; [17]
  Plant response rating, Ragweed: 75
[12]; Preemergence, 125 g ai/ha
  Plant response rating (scale 0 to 100), Ragweed: 25
[12]; [19]
  Plant response rating, Ragweed: 0
[12]; [20]
  Plant response rating, Ragweed: 0
[12]; [21]
  Plant response rating, Ragweed: 0
[13]; [15]
  Waterhemp plant response rating: 90
[13]; [16]
  Plant response rating, Waterhemp: 90
[13]; [17]
  Plant response rating, Waterhemp: 98
[13]; Preemergence, 125 g ai/ha
  Plant response rating (scale 0 to 100), Waterhemp: 100
[13]; [19]
  Plant response rating, Waterhemp: 100
[13]; [20]
  Plant response rating, Waterhemp: 100
[13]; [21]
  Plant response rating, Waterhemp: 100
[14]; [15]
  Pigweed plant response rating: 98
[14]; [16]
  Plant response rating, Pigweed: 98
[14]; [17]
  Plant response rating, Pigweed: 100
[14]; Preemergence, 125 g ai/ha
  Plant response rating (scale 0 to 100), Pigweed: 100
[14]; [19]
  Plant response rating, Pigweed: 100
[14]; [20]
  Plant response rating, Pigweed: 100
[14]; [21]
  Plant response rating, Pigweed: 100
